Values joined by “and” are separate entries in the source; they are usually repeats but may differ in a detail not shown here. Equal entries are not always repeated. Inconclusive results and toxic doses are left out. Cut-off read from the data, not from the text of the source: active = T/C of 150% or more; inactive = T/C below 125%.
Test system: L1210 leukemia ip in BDF1 mice, survival T/C
Assay: NCI In Vivo Anticancer Drug Screen. Data for tumor model L1210 Leukemia (intraperitoneal) in B6D2F1 (BDF1) mice
Conditions: endpoint: mean survival time, higher = longer survival
In short: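 Each compound was tested against a transplantable tumor grown in mice. The endpoint was survival, with treated animals benchmarked against vehicle controls as a simple ratio.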

[1] = dose: 100.0 mg/kg/injection, schedule: Q01DX001 (ip), vehicle: other
[2] = dose: 200.0 mg/kg/injection, schedule: Q01DX001 (ip), vehicle: other
[3] = dose: 400.0 mg/kg/injection, schedule: Q01DX001 (ip), vehicle: other
[4] = dose: 100.0 mg/kg/injection, schedule: Q04DX002 (ip), vehicle: saline with Tween-80
[5] = dose: 200.0 mg/kg/injection, schedule: Q04DX002 (ip), vehicle: saline with Tween-80
[6] = dose: 400.0 mg/kg/injection, schedule: Q04DX002 (ip), vehicle: saline with Tween-80
[7] = dose: 100.0 mg/kg/injection, schedule: Q04DX002 (ip), vehicle: Klucel (hydroxypropylcellulose) (HPC)
[8] = dose: 200.0 mg/kg/injection, schedule: Q04DX002 (ip), vehicle: Klucel (hydroxypropylcellulose) (HPC)
[9] = dose: 100.0 mg/kg/injection, schedule: Q01DX001 (ip), vehicle: carboxymethylcellulose (CMC)
[10] = dose: 200.0 mg/kg/injection, schedule: Q01DX001 (ip), vehicle: carboxymethylcellulose (CMC)
[11] = dose: 400.0 mg/kg/injection, schedule: Q01DX001 (ip), vehicle: carboxymethylcellulose (CMC)
[12] = dose: 100.0 mg/kg/injection, schedule: Q01DX009 (ip), vehicle: saline with Tween-80
[13] = dose: 200.0 mg/kg/injection, schedule: Q01DX009 (ip), vehicle: saline with Tween-80
[14] = dose: 50.0 mg/kg/injection, schedule: Q01DX009 (ip), vehicle: saline with Tween-80
[15] = dose: 100.0 mg/kg/injection, schedule: Q04DX003 (ip), vehicle: saline with Tween-80
[16] = dose: 200.0 mg/kg/injection, schedule: Q04DX003 (ip), vehicle: saline with Tween-80
[17] = dose: 100.0 mg/kg/injection, schedule: Q01DX009 (ip), vehicle: Klucel (hydroxypropylcellulose) (HPC)
[18] = dose: 100.0 mg/kg/injection, schedule: Q04DX003 (ip), vehicle: Klucel (hydroxypropylcellulose) (HPC)
[19] = dose: 200.0 mg/kg/injection, schedule: Q01DX009 (ip), vehicle: Klucel (hydroxypropylcellulose) (HPC)
[20] = dose: 200.0 mg/kg/injection, schedule: Q04DX003 (ip), vehicle: Klucel (hydroxypropylcellulose) (HPC)
[21] = dose: 400.0 mg/kg/injection, schedule: Q01DX009 (ip), vehicle: Klucel (hydroxypropylcellulose) (HPC)
[22] = dose: 400.0 mg/kg/injection, schedule: Q04DX003 (ip), vehicle: Klucel (hydroxypropylcellulose) (HPC)

Measured: T/C

Cc1nc2ccccc2[nH]c1=O
inactive: dose: 75.0 mg/kg/injection, schedule: Q04DX003 (ip), vehicle: saline 96 % of control | [1] 97 % of control | dose: 150.0 mg/kg/injection, schedule: Q04DX003 (ip), vehicle: saline 100 % of control | [2] 100 % of control | dose: 300.0 mg/kg/injection, schedule: Q04DX003 (ip), vehicle: saline 96 % of control | [3] 93 % of control

O=C(Cl)COc1c(Cl)cc(Cl)cc1Cl
inactive: [4] 107 % of control | [5] 107 % of control | [6] 103 % of control

O=[N+]([O-])c1ccc([S][Pb]([c]2ccccc2)([c]2ccccc2)[c]2ccccc2)cc1
inactive: [7] 111 % of control | [8] 93 % of control

CN1CCC(O)(c2ccc(F)cc2)C(C(=O)c2ccc(F)cc2)C1 (stereo unspecified)
inactive: dose: 50.0 mg/kg/injection, schedule: Q01DX001 (ip), vehicle: carboxymethylcellulose (CMC) 100 % of control | [9] 100 % of control | [10] 94 % of control | [11] 94 % of control

Cc1ccc2sc(C)cc(=O)c2c1
inactive: [9] 100 % of control | [10] 100 % of control | [11] 98 % of control

OC(/C(=C(/c1ccccc1)c1ccc(Cl)cc1)c1ccccc1)(c1ccccc1)c1ccccc1
inactive: [12] 98 % of control | [13] 95 % of control | dose: 400.0 mg/kg/injection, schedule: Q01DX009 (ip), vehicle: saline with Tween-80 98 % of control

Nc1ccn(CC(=O)c2cccs2)c(=O)n1
inactive: dose: 25.0 mg/kg/injection, schedule: Q01DX009 (ip), vehicle: saline with Tween-80 93 % of control | [14] 98 % of control | [12] 100 % of control and 103 % of control | [15] 94 % of control | [16] 110 % of control

Cc1cccc(CNC(=O)NCCCl)c1C
inactive: dose: 100.0 mg/kg/injection, schedule: Q01DX001 (ip), vehicle: Klucel (hydroxypropylcellulose) (HPC) 100 % of control | dose: 200.0 mg/kg/injection, schedule: Q01DX001 (ip), vehicle: Klucel (hydroxypropylcellulose) (HPC) 97 % of control | dose: 400.0 mg/kg/injection, schedule: Q01DX001 (ip), vehicle: Klucel (hydroxypropylcellulose) (HPC) 95 % of control

Cc1cccc(C)c1NC(=O)Nc1cccc(Cl)c1
inactive: [17] 93 % of control | [18] 94 % of control | [19] 93 % of control | [20] 89 % of control | [21] 92 % of control | [22] 89 % of control

CCCNC(c1ccccc1)=[N+]1CCCCC1
inactive: dose: 12.5 mg/kg/injection, schedule: Q04DX002 (ip), vehicle: saline 95 % of control | dose: 25.0 mg/kg/injection, schedule: Q04DX002 (ip), vehicle: saline 98 % of control

CC(C)=CCCNC(=O)NS(=O)(=O)c1ccc(Cl)cc1
inactive: dose: 50.0 mg/kg/injection, schedule: Q01DX009 (ip), vehicle: Klucel (hydroxypropylcellulose) (HPC) 101 % of control | [17] 95 % of control | [18] 104 % of control | [19] 102 % of control | [20] 110 % of control | [22] 95 % of control

COc1ccc(C2(OC)Oc3cc(OC)ccc3-c3nc4ccccc4nc32)cc1 (stereo unspecified)
inactive: dose: 50.0 mg/kg/injection, schedule: Q01DX001 (ip), vehicle: saline 101 % of control | dose: 100.0 mg/kg/injection, schedule: Q01DX001 (ip), vehicle: saline 101 % of control | dose: 200.0 mg/kg/injection, schedule: Q01DX001 (ip), vehicle: saline 95 % of control | dose: 400.0 mg/kg/injection, schedule: Q01DX001 (ip), vehicle: saline 101 % of control

COc1ccc2c(c1)C(=O)CCC2(C)C
inactive: [14] 100 % of control | [12] 86 % of control | [13] 105 % of control

CCOC(=O)CC1C(=O)CCCC1=O
inactive: dose: 100.0 mg/kg/injection, schedule: Q01DX001 (ip), vehicle: saline with Tween-80 98 % of control | dose: 200.0 mg/kg/injection, schedule: Q01DX001 (ip), vehicle: saline with Tween-80 104 % of control | dose: 400.0 mg/kg/injection, schedule: Q01DX001 (ip), vehicle: saline with Tween-80 95 % of control

COc1cccc(NC(=S)NN(C)C)c1
inactive: [7] 94 % of control | [8] 122 % of control | dose: 400.0 mg/kg/injection, schedule: Q04DX002 (ip), vehicle: Klucel (hydroxypropylcellulose) (HPC) 112 % of control

CCCNC(=O)C1C2CCC(C2)C1C(=O)NCCC (stereo unspecified)
inactive: [15] 96 % of control | [16] 96 % of control | dose: 400.0 mg/kg/injection, schedule: Q04DX003 (ip), vehicle: saline with Tween-80 96 % of control

CC(=O)c1cc2cc(Cl)cc(Cl)c2oc1=O
inactive: [12] 94 % of control | [4] 95 % of control | [13] 91 % of control | [5] 100 % of control | [6] 92 % of control

CC1(C)OC2OC(C(O)CN3CC3)C(O)C2O1 (stereo unspecified)
inactive: dose: 24.6 mg/kg/injection, schedule: Q01DX Z (ip), vehicle: methylcellulose (MC) 104 % of control | dose: 37.0 mg/kg/injection, schedule: Q01DX Z (ip), vehicle: methylcellulose (MC) 107 % of control | dose: 56.0 mg/kg/injection, schedule: Q01DX Z (ip), vehicle: methylcellulose (MC) 99 % of control | dose: 84.0 mg/kg/injection, schedule: Q01DX Z (ip), vehicle: methylcellulose (MC) 107 % of control

C1C[S][Sn]2([S]CCO1)[S]CCOCC[S]2
inactive: dose: 12.5 mg/kg/injection, schedule: Q01DX001 (ip), vehicle: saline with Tween-80 94 % of control | dose: 25.0 mg/kg/injection, schedule: Q01DX001 (ip), vehicle: saline with Tween-80 106 % of control | dose: 50.0 mg/kg/injection, schedule: Q01DX001 (ip), vehicle: saline with Tween-80 87 % of control

O=C(O)C(Cc1cccs1)c1ccccc1 (stereo unspecified)
inactive: dose: 50.0 mg/kg/injection, schedule: Q04DX003 (ip), vehicle: carboxymethylcellulose (CMC) 98 % of control | dose: 100.0 mg/kg/injection, schedule: Q04DX003 (ip), vehicle: carboxymethylcellulose (CMC) 106 % of control | dose: 200.0 mg/kg/injection, schedule: Q04DX003 (ip), vehicle: carboxymethylcellulose (CMC) 106 % of control

CC/C(C)=C\CC/C(C)=C/COc1cccc(C(C)=O)c1
inactive: dose: 75.0 mg/kg/injection, schedule: Q01DX009 (ip), vehicle: carboxymethylcellulose (CMC) 94 % of control | dose: 150.0 mg/kg/injection, schedule: Q01DX009 (ip), vehicle: carboxymethylcellulose (CMC) 90 % of control | dose: 300.0 mg/kg/injection, schedule: Q01DX009 (ip), vehicle: carboxymethylcellulose (CMC) 92 % of control

CCSCCOc1c(C(C)(C)C)cc([N+](=O)[O-])c(C)c1[N+](=O)[O-]
inactive: dose: 100.0 mg/kg/injection, schedule: Q04DX002 (ip), vehicle: saline 103 % of control | dose: 200.0 mg/kg/injection, schedule: Q04DX002 (ip), vehicle: saline 100 % of control | dose: 400.0 mg/kg/injection, schedule: Q04DX002 (ip), vehicle: saline 106 % of control

O=C(Nc1ccccc1F)OCCOc1ccc(Br)cc1
inactive: [17] 103 % of control | [19] 97 % of control | [21] 123 % of control
